This note sets out measurements from PubChem BioAssay AID248 (DTP/NCI, 2004).

Structures are written as SMILES. Inconclusive results and toxic doses are left out.

The subject of the assay is L1210 leukemia ip in BDF1 mice, survival T/C. The assay can be described thus: NCI In Vivo Anticancer Drug Screen. Data for tumor model L1210 Leukemia (intraperitoneal) in B6D2F1 (BDF1) mice. Particulars: endpoint: mean survival time, higher = longer survival. Summed up: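 Ratio derived from survival: compound-dosed mice over vehicle-dosed mice, all bearing a transplantable tumor.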

The mark [1] stands for this setting: dose: 100.0 mg/kg/injection, schedule: Q04DX002 (ip), vehicle: Klucel (hydroxypropylcellulose) (HPC).
[2] abbreviates: dose: 200.0 mg/kg/injection, schedule: Q04DX002 (ip), vehicle: Klucel (hydroxypropylcellulose) (HPC).
The mark [3] stands for this setting: dose: 400.0 mg/kg/injection, schedule: Q04DX002 (ip), vehicle: Klucel (hydroxypropylcellulose) (HPC).
Setting [4] is: dose: 100.0 mg/kg/injection, schedule: Q04DX003 (ip), vehicle: Klucel (hydroxypropylcellulose) (HPC).
Setting [5] is: dose: 200.0 mg/kg/injection, schedule: Q04DX003 (ip), vehicle: Klucel (hydroxypropylcellulose) (HPC).
Where [6] appears, read: dose: 100.0 mg/kg/injection, schedule: Q01DX001 (ip), vehicle: saline.
Setting [7] is: dose: 200.0 mg/kg/injection, schedule: Q01DX001 (ip), vehicle: saline.
Where [8] appears, read: dose: 400.0 mg/kg/injection, schedule: Q01DX001 (ip), vehicle: saline.
Setting [9] is: dose: 100.0 mg/kg/injection, schedule: Q04DX003 (ip), vehicle: saline with Tween-80.
Setting [10] is: dose: 200.0 mg/kg/injection, schedule: Q04DX003 (ip), vehicle: saline with Tween-80.
Where [11] appears, read: dose: 400.0 mg/kg/injection, schedule: Q04DX003 (ip), vehicle: saline with Tween-80.
Setting [12] is: dose: 25.0 mg/kg/injection, schedule: Q04DX003 (ip), vehicle: saline with Tween-80.
Where [13] appears, read: dose: 50.0 mg/kg/injection, schedule: Q04DX003 (ip), vehicle: saline with Tween-80.
[14] abbreviates: dose: 100.0 mg/kg/injection, schedule: Q01DX009 (ip), vehicle: saline.
Setting [15] is: dose: 100.0 mg/kg/injection, schedule: Q01DX009 (ip), vehicle: saline with Tween-80.
The mark [16] stands for this setting: dose: 200.0 mg/kg/injection, schedule: Q01DX009 (ip), vehicle: saline with Tween-80.

Regarding `CCOC(=O)C(=O)C(=O)OCC`, the T/C was 101 % of control (dose: 100.0 mg/kg/injection, schedule: Q04DX002 (ip), vehicle: saline with Tween-80); 107 % of control (dose: 200.0 mg/kg/injection, schedule: Q04DX002 (ip), vehicle: saline with Tween-80); 88 % of control (dose: 400.0 mg/kg/injection, schedule: Q04DX002 (ip), vehicle: saline with Tween-80).

For `O=C1CCC(=O)N1c1ccccc1`, the T/C runs as follows: under setting [1], 96 % of control; under setting [2], 92 % of control; under setting [3], 92 % of control.

As for `N#CC(c1ccccc1)N1CCCCC1` (centres undefined), the T/C by setting is: under setting [4], 101 % of control; under setting [5], 107 % of control; (dose: 400.0 mg/kg/injection, schedule: Q04DX003 (ip), vehicle: Klucel (hydroxypropylcellulose) (HPC)) 91 % of control.

For the compound `CCC(C#N)(CC)c1ccccc1`, the T/C by setting is: (dose: 50.0 mg/kg/injection, schedule: Q01DX001 (ip), vehicle: saline) 113 % of control; under setting [6], 107 % of control; under setting [7], 89 % of control; under setting [8], 101 % of control.

As for `CC(C)(C)NC(=O)C1C2CCC1C2Cl` (centres undefined), the T/C was 96 % of control (dose: 75.0 mg/kg/injection, schedule: Q01DX001 (ip), vehicle: saline); 92 % of control (dose: 150.0 mg/kg/injection, schedule: Q01DX001 (ip), vehicle: saline); 90 % of control (dose: 300.0 mg/kg/injection, schedule: Q01DX001 (ip), vehicle: saline).

Take `CC(C)(C)NC(=O)CCC(CC(=O)NC(C)(C)C)C1([N+](=O)[O-])CCCCC1` (centres undefined): the T/C was 92 % of control under setting [9], 91 % of control under setting [10] and 86 % of control under setting [11].

Regarding `CC(=O)Nc1ccc(Cl)cc1C(=O)c1ccccc1`, the T/C runs as follows: under setting [1], 96 % of control; under setting [2], 108 % of control; under setting [3], 96 % of control.

Consider `CC1(C)N=C(N)N=C(N)N1c1cccc(OCCCOc2cccc([N+](=O)[O-])c2)c1`, for which the T/C by setting is: (dose: 5.0 mg/kg/injection, schedule: Q01DX001 (ip), vehicle: saline) 100 % of control; (dose: 10.0 mg/kg/injection, schedule: Q01DX001 (ip), vehicle: saline) 97 % of control; (dose: 20.0 mg/kg/injection, schedule: Q01DX001 (ip), vehicle: saline) 97 % of control; (dose: 40.0 mg/kg/injection, schedule: Q01DX001 (ip), vehicle: saline) 100 % of control; (dose: 80.0 mg/kg/injection, schedule: Q01DX001 (ip), vehicle: saline) 95 % of control.

For `Cc1cc(Cl)ccc1NC(C)(C)C`, the T/C (dose: 75.0 mg/kg/injection, schedule: Q04DX002 (ip), vehicle: Klucel (hydroxypropylcellulose) (HPC)) was 104 % of control; the T/C (dose: 150.0 mg/kg/injection, schedule: Q04DX002 (ip), vehicle: Klucel (hydroxypropylcellulose) (HPC)) is 108 % of control; the T/C (dose: 300.0 mg/kg/injection, schedule: Q04DX002 (ip), vehicle: Klucel (hydroxypropylcellulose) (HPC)) is 104 % of control.

For `CCCSP(C(C)C)C(C)C`, the T/C was 94 % of control (dose: 12.5 mg/kg/injection, schedule: Q04DX003 (ip), vehicle: saline with Tween-80); 94 % of control under setting [12]; 91 % of control under setting [13].

In the case of `CCCCCCCCCCCCCCCCN1CCN(CCCCCCCCCCCCCCCC)CC1`, the T/C was 108 % of control under setting [1], 101 % of control under setting [2] and 101 % of control under setting [3].

Consider `Cc1ccc(-n2ccnc2C)c(N=Cc2ccc(N(CCCl)CCCl)cc2C)c1`, for which the T/C is, setting by setting: under setting [1], 98 % of control; under setting [2], 102 % of control; under setting [3], 106 % of control.

Turning to `CCCCSc1nc2ccc([N+](=O)[O-])cc2s1`, the T/C (dose: 100.0 mg/kg/injection, schedule: Q04DX002 (ip), vehicle: gum acacia) is 95 % of control; the T/C (dose: 200.0 mg/kg/injection, schedule: Q04DX002 (ip), vehicle: gum acacia) was 95 % of control; the T/C (dose: 400.0 mg/kg/injection, schedule: Q04DX002 (ip), vehicle: gum acacia) was 95 % of control.

Take `C=CCNC(=S)Nc1cccc(C(C)O)c1` (centres undefined): the T/C runs as follows: under setting [14], 107 % of control; (dose: 100.0 mg/kg/injection, schedule: Q04DX002 (ip), vehicle: saline) 89 % of control; (dose: 200.0 mg/kg/injection, schedule: Q01DX009 (ip), vehicle: saline) 112 % of control; (dose: 200.0 mg/kg/injection, schedule: Q04DX002 (ip), vehicle: saline) 89 % of control; (dose: 400.0 mg/kg/injection, schedule: Q04DX002 (ip), vehicle: saline) 96 % of control.

Regarding `CCCCCC(C[N+](C)(C)C)C(=O)/C=C/c1ccc(Cl)c(Cl)c1` (centres undefined), the T/C by setting is: (dose: 25.0 mg/kg/injection, schedule: Q04DX002 (ip), vehicle: Klucel (hydroxypropylcellulose) (HPC)) 91 % of control; (dose: 50.0 mg/kg/injection, schedule: Q04DX002 (ip), vehicle: Klucel (hydroxypropylcellulose) (HPC)) 98 % of control; under setting [1], 95 % of control.

`C[N+](C)(C)CC(=O)N/N=C\c1c(O)ccc2ccccc12`: the T/C under setting [12] is 97 % of control; the T/C under setting [13] was 104 % of control; the T/C under setting [4] is 100 % of control; the T/C under setting [9] was 97 % of control; the T/C under setting [5] is 93 % of control.

With `COc1cc(OC)c(-c2nc3cc(Cl)ccc3c(=O)o2)cc1OC`, the T/C (dose: 87.5 mg/kg/injection, schedule: Q01DX009 (ip), vehicle: Klucel (hydroxypropylcellulose) (HPC)) is 114 % of control; the T/C (dose: 175.0 mg/kg/injection, schedule: Q01DX009 (ip), vehicle: Klucel (hydroxypropylcellulose) (HPC)) is 98 % of control; the T/C (dose: 350.0 mg/kg/injection, schedule: Q01DX009 (ip), vehicle: Klucel (hydroxypropylcellulose) (HPC)) is 93 % of control.

On to `CC1(C)CC2C(=O)c3ccccc3NC2c2ccccc21` (centres undefined), for which the T/C runs as follows: (dose: 50.0 mg/kg/injection, schedule: Q01DX001 (ip), vehicle: carboxymethylcellulose (CMC)) 96 % of control; (dose: 100.0 mg/kg/injection, schedule: Q01DX001 (ip), vehicle: carboxymethylcellulose (CMC)) 102 % of control; (dose: 100.0 mg/kg/injection, schedule: Q04DX003 (ip), vehicle: acetone) 91 % of control; (dose: 200.0 mg/kg/injection, schedule: Q01DX001 (ip), vehicle: carboxymethylcellulose (CMC)) 98 % of control; (dose: 200.0 mg/kg/injection, schedule: Q04DX003 (ip), vehicle: acetone) 86 % of control; (dose: 400.0 mg/kg/injection, schedule: Q01DX001 (ip), vehicle: carboxymethylcellulose (CMC)) 98 % of control. Besides, the T/C (dose: 400.0 mg/kg/injection, schedule: Q04DX003 (ip), vehicle: acetone) was 93 % of control.

For the compound `CCSC(=O)N1c2ccc(C)cc2C=CC1C#N` (centres undefined), the T/C under setting [15] is 93 % of control; the T/C under setting [9] was 90 % of control; the T/C under setting [16] is 104 % of control; the T/C under setting [10] is 89 % of control; the T/C under setting [11] was 95 % of control.

For the compound `CCC(CO)Nc1nncc2ccccc12` (centres undefined), the T/C reads like this: under setting [6], 98 % of control; under setting [7], 96 % of control; under setting [8], 104 % of control.

Turning to `CC[CH2][Sn]([CH2]CC)([O]S(C)(=O)=O)[O]S(C)(=O)=O`, the T/C by setting is: (dose: 1.56 mg/kg/injection, schedule: Q01DX009 (ip), vehicle: Klucel (hydroxypropylcellulose) (HPC)) 115 % of control; (dose: 3.12 mg/kg/injection, schedule: Q01DX009 (ip), vehicle: Klucel (hydroxypropylcellulose) (HPC)) 97 % of control.

For `CC1(C)OC2COC(c3[nH]nc4c(=O)[nH]c(=O)[nH]c34)C2O1` (centres undefined), the T/C is 96 % of control (dose: 25.0 mg/kg/injection, schedule: Q01DX009 (ip), vehicle: saline); 101 % of control (dose: 100.0 mg/kg/injection, schedule: Q01DX005 (ip), vehicle: saline); 188 % of control under setting [14].

`Cc1ccc(NC(=O)COc2ccc(Cl)cc2Cl)c(C)c1`: the T/C reads like this: under setting [15], 104 % of control; under setting [9], 89 % of control; under setting [16], 101 % of control; under setting [10], 91 % of control; (dose: 400.0 mg/kg/injection, schedule: Q01DX009 (ip), vehicle: saline with Tween-80) 96 % of control; under setting [11], 91 % of control.
